Data reported in patent US11014941B2, “Pyrrolopyrimidine derivatives useful as inhibitors of influenza virus replication” (priority 2017, dated 2021).

What follows are compounds tested against Influenza PB2 (Influenza A virus, UniProt P03428) (assay: biochemical). Settings: read-out: Influenza PB2 affinity, IC50.
Chain of Influenza PB2 (P03428 whole entry, looked up): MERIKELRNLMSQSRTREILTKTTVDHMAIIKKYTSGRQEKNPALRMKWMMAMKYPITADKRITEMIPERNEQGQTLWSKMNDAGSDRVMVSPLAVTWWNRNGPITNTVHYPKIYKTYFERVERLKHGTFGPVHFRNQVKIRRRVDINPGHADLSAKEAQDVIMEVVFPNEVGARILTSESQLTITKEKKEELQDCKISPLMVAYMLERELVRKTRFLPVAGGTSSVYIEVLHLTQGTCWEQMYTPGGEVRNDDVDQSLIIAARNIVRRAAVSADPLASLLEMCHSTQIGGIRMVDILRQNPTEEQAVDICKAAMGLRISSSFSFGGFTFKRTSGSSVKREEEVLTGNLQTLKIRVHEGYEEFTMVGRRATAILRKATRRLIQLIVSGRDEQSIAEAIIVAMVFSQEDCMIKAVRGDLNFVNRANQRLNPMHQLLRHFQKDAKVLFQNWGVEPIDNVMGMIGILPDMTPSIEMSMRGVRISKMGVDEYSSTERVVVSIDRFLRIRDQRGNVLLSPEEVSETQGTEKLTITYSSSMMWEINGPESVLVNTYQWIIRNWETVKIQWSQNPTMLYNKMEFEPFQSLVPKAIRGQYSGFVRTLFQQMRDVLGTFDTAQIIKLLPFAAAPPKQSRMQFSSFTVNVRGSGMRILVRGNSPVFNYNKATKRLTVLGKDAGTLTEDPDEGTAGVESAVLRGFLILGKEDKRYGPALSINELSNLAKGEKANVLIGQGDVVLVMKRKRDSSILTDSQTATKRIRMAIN
Format: binding
`O=C(O)[C@H]1CCC[C@@H]1n1ccc2cnc(-c3c[nH]c4ncc(F)cc34)nc21` [Compound B16] showed an IC50 of 1 to 10 µM.
For `COC(=O)[C@@H]1C2CCC(CC2)[C@H]1n1cc(-c2ccccc2O)c2cnc(-c3c[nH]c4ncc(F)cc34)nc21` [Compound B170], the IC50 was 10 to 100 µM.
`NC(=O)C[C@H](NC(=O)Cn1ccc2c(-c3c[nH]c4ncc(F)cc34)ncnc21)C(=O)O` [Compound A17] was tested, and the IC50 was 1 to 10 µM.
Work on `CNC(=O)[C@@H]1C2CCC(CC2)[C@H]1n1cc(F)c2cnc(-c3c[nH]c4ncc(Cl)cc34)nc21` [Compound B188] yielded an IC50 of 1 to 10 µM.
In the case of `O=C(O)[C@@H]1C2CCC(CC2)[C@H]1n1cc(-c2ccn[nH]2)c2cnc(-c3c[nH]c4ncc(F)cc34)nc21` [Compound B164], the IC50 is reported as less than 1 µM.
For `O=C(O)[C@@H]1C2CCC(CC2)[C@H]1n1cc(-c2ccccc2O)c2cnc(-c3c[nH]c4ncc(F)cc34)nc21` [Compound B165], the IC50 was 1 to 10 µM.
With `CCCCCOCCCCC(=O)N[C@H]1CCC[C@@H](n2ccc3cnc(-c4c[nH]c5ncc(F)cc45)nc32)C1` [Compound B50] the IC50 was greater than 100 µM.
With `CNC(=O)C1=C(n2cc(F)c3cnc(-c4c[nH]c5ncc(Cl)cc45)nc32)C2CCC1CC2` [Compound B221] the IC50 was 1 to 10 µM.
With `N#Cc1cnccc1-c1cn([C@@H]2C3CCC(CC3)[C@H]2C(=O)O)c2nc(-c3c[nH]c4ncc(Cl)cc34)ncc12` [Compound B220] the IC50 was 10 to 100 µM.
For `COC(=O)[C@@]1(C)CCCC[C@@H]1n1ccc2cnc(-c3c[nH]c4ncc(F)cc34)nc21` [Compound B67], the IC50 was 10 to 100 µM.
`CCOC(=O)[C@H]1C2CCC(CC2)[C@@H]1n1ccc2cnc(-c3c[nH]c4ncc(Cl)cc34)nc21` [Compound B128] gave an IC50 of 10 to 100 µM.
`CCOCCOCCCCC(=O)N[C@H]1CCC[C@@H](n2ccc3cnc(-c4c[nH]c5ncc(F)cc45)nc32)C1` [Compound B52] gave an IC50 greater than 100 µM.
With `O=C(O)[C@H]1C2CCC(CC2)C1n1cc(Cl)c2cnc(-c3c[nH]c4ncc(F)cc34)nc21` (single isomer, unassigned) [Compound B133] the IC50 was less than 1 µM.
`CCOCCOCCOCC(=O)N[C@@H]1CCC[C@H](n2ccc3cnc(-c4c[nH]c5ncc(F)cc45)nc32)C1` [Compound B28] was tested, and the IC50 was 10 to 100 µM.
Compound `C[C@@]1(C(=O)O)CCCC[C@H]1n1cc(F)c2cnc(-c3c[nH]c4ncc(F)cc34)nc21` [Compound B89] has an IC50 of less than 1 µM.
`O=C(O)[C@H]1C2CCC(CC2)C1n1ccc2cnc(-c3c[nH]c4ncc(F)cc34)nc21` (stereo partly drawn) [Compound B122] was tested, and the IC50 was 1 to 10 µM.
`CCOC(=O)C1=C(N2CCc3cnc(-c4c[nH]c5ncc(F)cc45)nc32)CCCC1` [Compound B51] showed an IC50 greater than 100 µM.
In the case of `O=C(O)C[C@H](NC(=O)Cn1ccc2c(-c3c[nH]c4ncc(F)cc34)ncnc21)C(=O)O` [Compound A14], the IC50 is reported as 1 to 10 µM.
`CNC(=O)N1CCC(Cn2cc(F)c3cnc(-c4c[nH]c5ncc(F)cc45)nc32)CC1` [Compound B62] gave an IC50 greater than 100 µM.
With `CCOCCOCCCCC(=O)N[C@H]1CCC[C@@H](n2ccc3cnc(-c4c[nH]c5ncc(F)cc45)nc32)C1` (relative stereo) [Compound B100] the IC50 was 10 to 100 µM.
In the case of `COC(=O)[C@@H]1CCC[C@H]1n1ccc2cnc(-c3c[nH]c4ncc(F)cc34)nc21` [Compound B19], the IC50 is reported as 1 to 10 µM.
`COC(=O)/C=C/n1ccc2cnc(-c3c[nH]c4ncc(F)cc34)nc21` [Compound B23] was tested, and the IC50 was 10 to 100 µM.
`COC(=O)[C@]1(C)CCCC[C@H]1n1cc(Cl)c2cnc(-c3c[nH]c4ncc(F)cc34)nc21` [Compound B66] was tested, and the IC50 was 10 to 100 µM.
Work on `O=C(O)[C@@H]1C2CCC(CC2)[C@H]1n1ccc2ccc(-c3c[nH]c4ncc(F)cc34)nc21` [Compound B205] yielded an IC50 of 1 to 10 µM.
`COC(=O)CNC(=O)Cn1ccc2cnc(-c3c[nH]c4ncc(F)cc34)nc21` [Compound B10] gave an IC50 greater than 100 µM.
`O=C(O)[C@@H]1C2CCC(CC2)[C@H]1n1ccc2cnc(-c3c[nH]c4ncc(F)cc34)cc21` [Compound B208] was tested, and the IC50 was 1 to 10 µM.
Work on `O=C(Cn1ccc2c(-c3c[nH]c4ncc(F)cc34)ncnc21)N[C@@H](CO)C(=O)O` [Compound A20] yielded an IC50 of 1 to 10 µM.
`O=C(O)[C@@H]1C2CCC(CC2)[C@H]1n1cc(-c2ccncc2)c2cnc(-c3c[nH]c4ncc(F)cc34)nc21` [Compound B147] was tested, and the IC50 was 1 to 10 µM.
`CCOC(=O)[C@@H]1C2CCC(CC2)[C@H]1n1cc(C#CCCC#N)c2cnc(-c3c[nH]c4ncc(F)cc34)nc21` [Compound B203] showed an IC50 of 10 to 100 µM.
With `N#Cc1cn([C@@H]2C3CCC(CC3)[C@H]2C(=O)O)c2nc(-c3c[nH]c4ncc(Cl)cc34)ncc12` [Compound B191] the IC50 was less than 1 µM.
In the case of `O=C(Cn1ccc2cnc(-c3c[nH]c4ncc(F)cc34)nc21)N[C@@H](Cc1ccccc1)C(=O)O` [Compound B14], the IC50 is reported as 10 to 100 µM.
For `CSCCCCc1cn([C@@H]2C3CCC(CC3)[C@H]2C(=O)O)c2nc(-c3c[nH]c4ncc(F)cc34)ncc12` [Compound B192], the IC50 was less than 1 µM.
`Cc1cn([C@@H]2C3CCC(CC3)[C@H]2C(=O)O)c2nc(-c3c[nH]c4ncc(F)cc34)ncc12` [Compound B163] was tested, and the IC50 was less than 1 µM.
For `CCOC(=O)[C@H]1C2CCC(CC2)[C@@H]1n1ccc2cnc(-c3c[nH]c4ncc(F)cc34)nc21` [Compound B121], the IC50 was 10 to 100 µM.
In the case of `O=C(O)[C@H]1CCCC1n1ccc2cnc(-c3c[nH]c4ncc(F)cc34)nc21` (single isomer, unassigned) [Compound B22], the IC50 is reported as 1 to 10 µM.
With `CCCCCOCCCCCNC(=O)N1CCC[C@H](n2ccc3cnc(-c4c[nH]c5ncc(F)cc45)nc32)C1` [Compound B34] the IC50 was greater than 100 µM.
In the case of `CCOC(=O)[C@@H]1C2CCC(CC2)[C@H]1n1cc(C#CC2CC2)c2cnc(-c3c[nH]c4ncc(F)cc34)nc21` [Compound B154], the IC50 is reported as 10 to 100 µM.
`CNC(=O)N1CCCC(Cn2cc(F)c3cnc(-c4c[nH]c5ncc(F)cc45)nc32)C1` (stereo not drawn) [Compound B61] was tested, and the IC50 was 1 to 10 µM.
Compound `COC(=O)[C@H](C)NC(=O)Cn1ccc2cnc(-c3c[nH]c4ncc(F)cc34)nc21` [Compound B7] has an IC50 greater than 100 µM.
`CCCCCOCCOCCN(C)C(=O)N[C@@H]1CCC[C@H](n2ccc3cnc(-c4c[nH]c5ncc(F)cc45)nc32)C1` [Compound B42] gave an IC50 greater than 100 µM.
Work on `O=C(O)[C@@H]1C2CCC(CC2)[C@H]1n1cc(C(F)(F)F)c2cnc(-c3c[nH]c4ncc(F)cc34)nc21` [Compound B151] yielded an IC50 of less than 1 µM.
`CCOCCCCCOCCNC(=O)N1CCC[C@H](n2ccc3cnc(-c4c[nH]c5ncc(F)cc45)nc32)C1` [Compound B35] showed an IC50 of 10 to 100 µM.
`CN(C)C(=O)Cn1cc(-c2c[nH]c3ncc(F)cc23)c2cncnc21` [Compound C1] gave an IC50 of 10 to 100 µM.
`CNC(=O)[C@]1(C)CCCC[C@H]1n1cc(Cl)c2cnc(-c3c[nH]c4ncc(F)cc34)nc21` [Compound B82] was tested, and the IC50 was 10 to 100 µM.
`O=C(O)[C@@H]1C2CCC(CC2)[C@H]1n1cc(-c2ccncc2F)c2cnc(-c3c[nH]c4ncc(Cl)cc34)nc21` (relative stereo) [Compound B211] gave an IC50 of 1 to 10 µM.
With `O=C(O)CCn1cc(-c2c[nH]c3ncc(F)cc23)c2cncnc21` [Compound C5] the IC50 was greater than 100 µM.
`CCOC(=O)[C@@H]1C2CCC(CC2)[C@H]1n1cc(CCc2ccccn2)c2cnc(-c3c[nH]c4ncc(F)cc34)nc21` [Compound B184] gave an IC50 of 10 to 100 µM.
`COC(=O)[C@H]1CCCC[C@@H]1n1ccc2cnc(-c3c[nH]c4ncc(F)cc34)nc21` [Compound B20] showed an IC50 of 10 to 100 µM.
`CNC(=O)[C@@H]1C2CCC(CC2)C1n1cc(F)c2cnc(-c3c[nH]c4ncc(Cl)cc34)nc21` (single isomer, unassigned) [Compound B195] showed an IC50 of 10 to 100 µM.
`CNC(=O)N[C@H]1CC[C@H](n2ccc3cnc(-c4c[nH]c5ncc(F)cc45)nc32)CC1` [Compound B79] gave an IC50 greater than 100 µM.
Compound `COC(=O)[C@]1(C)CCCC[C@H]1n1cc(C(F)(F)F)c2cnc(-c3c[nH]c4ncc(F)cc34)nc21` [Compound B73] has an IC50 of 10 to 100 µM.
With `CNC(=O)N[C@@H]1CCC[C@@H](n2ccc3cnc(-c4c[nH]c5ncc(F)cc45)nc32)C1` [Compound B65] the IC50 was 1 to 10 µM.
`O=C(O)[C@@H]1C2CCC(CC2)[C@H]1n1cc(C#CC2CC2)c2cnc(-c3c[nH]c4ncc(F)cc34)nc21` [Compound B153] showed an IC50 of less than 1 µM.
`Fc1cnc2[nH]cc(-c3ncc4c(F)cn(CC5CCNCC5)c4n3)c2c1` [Compound B55] showed an IC50 greater than 100 µM.
In the case of `CCOC(=O)[C@@H]1C2CCC(CC2)[C@H]1n1cc(-c2ccncc2)c2cnc(-c3c[nH]c4ncc(F)cc34)nc21` [Compound B176], the IC50 is reported as 10 to 100 µM.
`O=C(O)[C@@H]1C2CCC(CC2)[C@H]1n1ccc2ccc(-c3c[nH]c4ncc(Cl)cc34)cc21` [Compound B206] gave an IC50 of 1 to 10 µM.
Work on `CCOCCOCCOCCNC(=O)N1CCC[C@H](n2ccc3cnc(-c4c[nH]c5ncc(F)cc45)nc32)C1` [Compound B31] yielded an IC50 of 10 to 100 µM.
For `CC(CC(=O)O)n1cc(-c2c[nH]c3ncc(F)cc23)c2cncnc21` (stereo not drawn) [Compound C8], the IC50 was 10 to 100 µM.
`O=C(O)C1=C(n2cc(F)c3cnc(-c4c[nH]c5ncc(F)cc45)nc32)C2CCC1CC2` [Compound B222] gave an IC50 of less than 1 µM.
For `CCOCCOCCOCCN(C)C(=O)[C@@H]1CCCC[C@H]1n1ccc2cnc(-c3c[nH]c4ncc(F)cc34)nc21` [Compound B26], the IC50 was 10 to 100 µM.
`O=C(N[C@H]1CCC[C@@H](n2cc(F)c3cnc(-c4c[nH]c5ncc(Cl)cc45)nc32)C1)c1ccccn1` [Compound B96] showed an IC50 greater than 100 µM.
With `C=Cc1cnc2[nH]cc(-c3ncc4c(F)cn([C@@H]5C6CCC(CC6)[C@H]5C(=O)O)c4n3)c2c1` [Compound B210] the IC50 was 1 to 10 µM.
Work on `CCOCCOCCOCCNC(=O)[C@H]1CCC[C@@H](n2ccc3cnc(-c4c[nH]c5ncc(F)cc45)nc32)C1` [Compound B46] yielded an IC50 of 10 to 100 µM.
Work on `CN(C)C(=O)CCN1CCc2cnc(-c3c[nH]c4ncc(F)cc34)nc21` [Compound B12] yielded an IC50 of 10 to 100 µM.
`O=C(O)[C@@H]1C2CCC(CC2)[C@H]1n1cc(-c2ccoc2)c2cnc(-c3c[nH]c4ncc(F)cc34)nc21` [Compound B161] was tested, and the IC50 was less than 1 µM.
`O=C(O)[C@@H]1C2CCC(CC2)C1n1cc(-c2ccncc2)c2cnc(-c3c[nH]c4ncc(Cl)cc34)nc21` (single isomer, unassigned) [Compound B190] was tested, and the IC50 was 1 to 10 µM.
Work on `O=C(O)C1=C(n2cc(F)c3cnc(-c4c[nH]c5ncc(Cl)cc45)nc32)CCCC1` [Compound B103] yielded an IC50 of less than 1 µM.
With `CNC(=O)CCn1cc(-c2c[nH]c3ncc(F)cc23)c2cncnc21` [Compound C11] the IC50 was greater than 100 µM.
Compound `O=C(O)[C@@H]1C2CCC(CC2)[C@H]1n1cc(-c2ccc(O)cc2)c2cnc(-c3c[nH]c4ncc(F)cc34)nc21` [Compound B160] has an IC50 of 1 to 10 µM.
